# ChEMBL document CHEMBL3994587, “An insight on synthetic and medicinal aspects of pyrazolo[1,5-a]pyrimidine scaffold” (Eur J Med Chem, 2017)
# Experiments:
# Staphylococcus aureus [1] = assay: Antibacterial activity against Staphylococcus aureus MTCC 96 assessed as zone of inhibition at 25 to 150 ug/ml measured after 24 hrs by agar well diffusion method; type: functional
# Aspergillus niger = assay: Antifungal activity against Aspergillus niger assessed as zone of inhibition at 25 to 150 ug/ml measured after 24 to 48 hrs by agar well diffusion method; type: functional
# Bacillus subtilis [2] = assay: Antibacterial activity against Bacillus subtilis MTCC 441 assessed as zone of inhibition at 25 to 150 ug/ml measured after 24 hrs by agar well diffusion method; type: functional
# Candida albicans [3] = assay: Antifungal activity against Candida albicans MTCC 227 assessed as zone of inhibition at 25 to 150 ug/ml measured after 24 to 48 hrs by agar well diffusion method; type: functional
# Salmonella typhi = assay: Antibacterial activity against Salmonella typhi MTCC 98 assessed as zone of inhibition at 25 to 150 ug/ml measured after 24 hrs by agar well diffusion method; type: functional, Salmonella enterica subsp. enterica serovar Typhi
# Escherichia coli [4] = assay: Antibacterial activity against Escherichia coli MTCC 443 assessed as zone of inhibition at 25 to 150 ug/ml measured after 24 hrs by agar well diffusion method; type: functional
# Penicillium chrysogenum = assay: Antifungal activity against Penicillium chrysogenum MTCC 160 assessed as zone of inhibition at 25 to 150 ug/ml measured after 24 to 48 hrs by agar well diffusion method; type: functional
# Pseudomonas aeruginosa [5] = assay: Antibacterial activity against Pseudomonas aeruginosa RCMB 000103 assessed as zone of inhibition at 30 ug/ml; type: functional; conditions: read-out: IZ
# [6] = test system: Syncephalastrum racemosum; assay: Antifungal activity against Syncephalastrum racemosum 005004 assessed as zone of inhibition at 30 ug/ml; type: functional; conditions: read-out: IZ
# Aspergillus fumigatus = assay: Antifungal activity against Aspergillus fumigatus RCMB 002006 assessed as zone of inhibition at 30 ug/ml; type: functional; conditions: read-out: IZ
# Candida albicans [7] = assay: Antifungal activity against Candida albicans RCMB 0005003 assessed as zone of inhibition at 30 ug/ml; type: functional; conditions: read-out: IZ
# Escherichia coli [8] = assay: Antibacterial activity against Escherichia coli RCMB 000106 assessed as zone of inhibition at 30 ug/ml; type: functional; conditions: read-out: IZ
# Bacillus subtilis [9] = assay: Antibacterial activity against Bacillus subtilis RCMB 000109 assessed as zone of inhibition at 30 ug/ml; type: functional; conditions: read-out: IZ
# Geotrichum candidum = assay: Antifungal activity against Geotrichum candidum 052008 assessed as zone of inhibition at 30 ug/ml; type: functional; conditions: read-out: IZ
# Staphylococcus aureus [10] = assay: Antibacterial activity against Staphylococcus aureus RCMB 000108 assessed as zone of inhibition at 30 ug/ml; type: functional; conditions: read-out: IZ
# Translocator protein [11] = target: T1, Translocator protein (Rattus norvegicus, UniProt P16257); assay: Displacement of [3H]Ro5-4864 from PBZR in rat kidney mitochondrial membranes measured after 90 mins by liquid scintillation counting; type: cell membranes
# Translocator protein [12] = target: T1, Translocator protein; assay: Displacement of [3H]PK11195 from PBZR in rat kidney mitochondrial membranes measured after 90 mins by liquid scintillation counting; type: cell membranes
# Aspergillus flavus = assay: Antifungal activity against Aspergillus flavus MTCC 3008 assessed as zone of inhibition at 25 to 150 ug/ml measured after 24 to 48 hrs by agar well diffusion method; type: functional
# Escherichia coli [13] = assay: Antibacterial activity against Escherichia coli NCTC 10416 assessed as zone of inhibition at 1 mg/ml measured after 24 hrs by agar diffusion method; type: functional; conditions: NCTC 10416, 24 h, read-out: IZ
# Serratia marcescens = assay: Antibacterial activity against Serratia marcescens IMRU 70 assessed as zone of inhibition at 1 mg/ml measured after 24 hrs by agar diffusion method; type: functional; conditions: IMRU 70, 24 h, read-out: IZ
# Sarcina = assay: Antibacterial activity against Sarcina sp. NCTC 1117 assessed as zone of inhibition at 1 mg/ml measured after 24 hrs by agar diffusion method; type: functional; conditions: NCTC 1117, 24 h, read-out: IZ
# Bacillus subtilis [14] = assay: Antibacterial activity against Bacillus subtilis NCTC 10400 assessed as zone of inhibition at 1 mg/ml measured after 24 hrs by agar diffusion method; type: functional; conditions: NCTC 10400, 24 h, read-out: IZ
# Staphylococcus aureus [15] = assay: Antibacterial activity against Staphylococcus aureus NCTC 7447 assessed as zone of inhibition at 1 mg/ml measured after 24 hrs by agar diffusion method; type: functional; conditions: NCTC 7447, 24 h, read-out: IZ
# [16] = test system: Trichophyton mentagrophytes; assay: Anti-fungal activity against Trichophyton mentagrophytes measured after 48 hrs by broth dilution method; type: functional
# Escherichia coli [17] = assay: Antibacterial activity against Escherichia coli measured after 18 hrs by agar dilution method; type: functional
# Candida albicans [18] = assay: Antifungal activity against Candida albicans measured after 18 hrs by agar dilution method; type: functional
# Pseudomonas aeruginosa [19] = assay: Antibacterial activity against Pseudomonas aeruginosa measured after 18 hrs by agar dilution method; type: functional
# Staphylococcus aureus [20] = assay: Antibacterial activity against Staphylococcus aureus measured after 18 hrs by agar dilution method; type: functional
# Bacillus subtilis [21] = assay: Antibacterial activity against Bacillus subtilis measured after 18 hrs by agar dilution method; type: functional
# Ehrlich = assay: Cytotoxicity against […] EAC cells by trypan blue staining based microscopic analysis; type: functional, cell-based, Mus musculus
# T1 sequence (P16257 whole entry, looked up): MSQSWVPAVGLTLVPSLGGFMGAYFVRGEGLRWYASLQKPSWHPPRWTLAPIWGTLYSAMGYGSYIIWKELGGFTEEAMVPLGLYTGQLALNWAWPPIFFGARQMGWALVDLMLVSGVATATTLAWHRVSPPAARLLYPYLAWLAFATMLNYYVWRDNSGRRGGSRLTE
smiles,measurement,setting,value
Cc1nn(-c2ccccc2)c(Cl)c1-c1cc(-c2cc(Cl)ccc2O)nc2c(/N=N/c3ccc(Cl)cc3)c(N)nn12,inhibition zone (IZ),Staphylococcus aureus [1],15 mm
same,inhibition zone (IZ),Aspergillus niger,20 mm
same,inhibition zone (IZ),Bacillus subtilis [2],12 mm
same,inhibition zone (IZ),Candida albicans [3],11 mm
same,inhibition zone (IZ),Salmonella typhi,15 mm
same,inhibition zone (IZ),Escherichia coli [4],18 mm
same,inhibition zone (IZ),Penicillium chrysogenum,13 mm
Cc1ccc(/N=N/c2c(N)nn3c(-c4ccco4)cc(-c4ccco4)nc23)cc1,zone of inhibition at 30 µg/mL,Pseudomonas aeruginosa [5],18.5 mm
same,zone of inhibition at 30 µg/mL,[6],14.8 mm
same,zone of inhibition at 30 µg/mL,Aspergillus fumigatus,21.8 mm
same,zone of inhibition at 30 µg/mL,Candida albicans [7],18.1 mm
same,zone of inhibition at 30 µg/mL,Escherichia coli [8],21.9 mm
same,zone of inhibition at 30 µg/mL,Bacillus subtilis [9],23.3 mm
same,zone of inhibition at 30 µg/mL,Geotrichum candidum,19.5 mm
same,zone of inhibition at 30 µg/mL,Staphylococcus aureus [10],22.2 mm
CCC(CC)C(=O)Cc1c(-c2ccc(OC)cc2)nn2c(C)cc(C)nc12,Ki,Translocator protein [11],3.1 nM
same,Ki,Translocator protein [12],4.7 nM
Cc1ccc(-c2cc(-c3c(C)nn(-c4ccccc4)c3Cl)n3nc(N)c(/N=N/c4ccc(Cl)cc4)c3n2)c(O)c1Br,inhibition zone (IZ),Staphylococcus aureus [1],10 mm
same,inhibition zone (IZ),Aspergillus niger,14 mm
same,inhibition zone (IZ),Aspergillus flavus,17 mm
same,inhibition zone (IZ),Candida albicans [3],15 mm
same,inhibition zone (IZ),Salmonella typhi,30 mm
same,inhibition zone (IZ),Escherichia coli [4],19 mm
same,inhibition zone (IZ),Penicillium chrysogenum,16 mm
COc1ccccc1NS(=O)(=O)c1ccc(/N=N/c2c(=O)[nH]n3cc(C#N)c(N)nc23)cc1,zone of inhibition at 1000 µg/mL,Escherichia coli [13],12 to 14 mm
same,zone of inhibition at 1000 µg/mL,Serratia marcescens,12 to 14 mm
same,zone of inhibition at 1000 µg/mL,Sarcina,12 to 14 mm
same,zone of inhibition at 1000 µg/mL,Bacillus subtilis [14],15 to 18 mm
same,zone of inhibition at 1000 µg/mL,Staphylococcus aureus [15],9 to 11 mm
CCCCCCCC/C=C\CCCCCCCCNc1cc(C)nc2c(Br)cnn12,MLC,[16],20 µM
same,MIC,"[16]; Trichophyton mentagrophytes, 48 h",10 µM
Cc1nc(-c2ccccc2)sc1-c1ccn2nc(C#N)cc2n1,MIC,Escherichia coli [17],≥ 800 µg/mL
same,MIC,Candida albicans [18],≥ 400 µg/mL
same,MIC,Pseudomonas aeruginosa [19],≥ 800 µg/mL
same,MIC,Staphylococcus aureus [20],≥ 800 µg/mL
same,MIC,Bacillus subtilis [21],≥ 800 µg/mL
Cc1nc(-c2ccccc2)sc1-c1ccn2nc(C)c(-c3ccccc3)c2n1,MIC,Escherichia coli [17],≥ 400 µg/mL
same,MIC,Candida albicans [18],≥ 400 µg/mL
same,MIC,Pseudomonas aeruginosa [19],≥ 800 µg/mL
same,MIC,Staphylococcus aureus [20],≥ 800 µg/mL
same,MIC,Bacillus subtilis [21],≥ 400 µg/mL
Cc1nn2c(-c3ccccc3)ccnc2c1/N=N/c1c(C)n(C)n(-c2ccccc2)c1=O,ED25,Ehrlich,70.2 µg/mL
same,ED100,Ehrlich,99.8 µg/mL
same,IC50,"Ehrlich; Mus musculus, Ehrlich",3.13 µg/mL
same,EC50,"Ehrlich; Mus musculus, Ehrlich, read-out: ED50 (the source's name)",87.1 µg/mL
COc1ccccc1NS(=O)(=O)c1ccc(/N=N/c2c(=O)[nH]n3c(-c4ncccn4)c(C#N)c(N)nc23)cc1,zone of inhibition at 1000 µg/mL,Escherichia coli [13],12 to 14 mm
same,zone of inhibition at 1000 µg/mL,Serratia marcescens,12 to 14 mm
same,zone of inhibition at 1000 µg/mL,Sarcina,12 to 14 mm
same,zone of inhibition at 1000 µg/mL,Bacillus subtilis [14],15 to 18 mm
same,zone of inhibition at 1000 µg/mL,Staphylococcus aureus [15],15 to 18 mm
OC(Cn1cncn1)(Cn1cncn1)c1ccc(F)cc1F [FLUCONAZOLE],MIC,Escherichia coli [17],≥ 800 µg/mL
same,MIC,Candida albicans [18],≤ 25 µg/mL
same,MIC,Pseudomonas aeruginosa [19],≥ 800 µg/mL
same,MIC,Staphylococcus aureus [20],≥ 800 µg/mL
same,MIC,Bacillus subtilis [21],≥ 800 µg/mL
COc1ccc(NS(=O)(=O)c2ccc(/N=N/c3c(=O)[nH]n4c(-c5nccc(C)n5)c(C#N)c(N)nc34)cc2)cc1,zone of inhibition at 1000 µg/mL,Escherichia coli [13],12 to 14 mm
same,zone of inhibition at 1000 µg/mL,Serratia marcescens,15 to 18 mm
same,zone of inhibition at 1000 µg/mL,Sarcina,15 to 18 mm
same,zone of inhibition at 1000 µg/mL,Bacillus subtilis [14],9 to 11 mm
same,zone of inhibition at 1000 µg/mL,Staphylococcus aureus [15],12 to 14 mm
Cc1nn(-c2ccccc2)c(Cl)c1-c1cc(-c2cc(Cl)cc(Cl)c2O)nc2c(/N=N/c3ccc(Cl)cc3)c(N)nn12,inhibition zone (IZ),Aspergillus niger,18 mm
same,inhibition zone (IZ),Bacillus subtilis [2],16 mm
same,inhibition zone (IZ),Aspergillus flavus,21 mm
same,inhibition zone (IZ),Candida albicans [3],17 mm
same,inhibition zone (IZ),Salmonella typhi,24 mm
same,inhibition zone (IZ),Escherichia coli [4],26 mm
same,inhibition zone (IZ),Penicillium chrysogenum,24 mm
Cc1nc(-c2ccccc2)sc1-c1ccn2nc(-c3ccccc3)cc2n1,MIC,Escherichia coli [17],≥ 800 µg/mL
same,MIC,Candida albicans [18],≥ 800 µg/mL
same,MIC,Pseudomonas aeruginosa [19],≥ 800 µg/mL
same,MIC,Staphylococcus aureus [20],≥ 800 µg/mL
same,MIC,Bacillus subtilis [21],≥ 800 µg/mL
Cc1cc(O)c(-c2cc(-c3c(C)nn(-c4ccccc4)c3Cl)n3nc(N)c(/N=N/c4ccc(Cl)cc4)c3n2)cc1Cl,inhibition zone (IZ),Staphylococcus aureus [1],14 mm
same,inhibition zone (IZ),Aspergillus niger,16 mm
same,inhibition zone (IZ),Bacillus subtilis [2],18 mm
same,inhibition zone (IZ),Aspergillus flavus,10 mm
same,inhibition zone (IZ),Candida albicans [3],20 mm
same,inhibition zone (IZ),Escherichia coli [4],16 mm
same,inhibition zone (IZ),Penicillium chrysogenum,19 mm
